Tests used:
TAF1-BD1 = TAF1-BD1 (Homo sapiens, UniProt P21675); test: TAF1-BD1 TR-FRET Binding Assay; conditions: read-out: TAF1-BD1 HTRF IC50
Protocol: IC50 Measurements for Inhibitors Using TAF1-BD1 TR-FRET Binding Assay
His/Flag epitope tagged TAF1-BD11381-1497 was cloned, expressed, and purified to homogeneity. TAF1-BD binding and inhibition was assessed by monitoring the engagement of a biotinylated small molecule compound 1000 with the target using the TR-FRET assay technology (Perkin-Elmer). Specifically, in a 384 well ProxiPlate, TAF1-BDI (0.08 uM final) in 50 mM HEPES (pH 7.5; final), 50 mM NaCl (final), 1 mM TCEP (final), 0.1 mg/mL BSA (final), and 0.069 mM Brij-35 (final) was added either in the presence of DMSO (final 0.2% DMSO) or compound dilution series in DMSO. After a 10 minute incubation at room temperature, biotin-ligand (0.08 uM final) was added. After 10 minutes incubation at room temperature, a mixture Eu-W1024 Anti-6×His antibody (Perkin Elmer ADO 110) and SureLight™ Streptavidin-Allophycocyanin (SA-APC, Perkin Elmer CR130-100) were added to final concentrations of 0.2 nM antibody and 0.05 uM SA-APC, respectively. After forty minutes of equilibration at room temperature, the plates were read on an Envision instrument and IC50s calculated using a four parameter logistic model (XLFIT).

TAF1-BD2 = TAF1-BD2 (Homo sapiens, UniProt P21675); test: TAF1-BD2 TR-FRET Binding Assay; conditions: read-out: TAF1-BD2 HTRF IC50
Protocol: IC50 Measurements for Inhibitors Using TAF1-BD2 TR-FRET Binding Assay
His/Flag epitope tagged TAF1-BD21504-1635 was cloned, expressed, and purified to homogeneity. TAF1-BD2 binding and inhibition was assessed by monitoring the engagement of a biotinylated small molecule compound 1000 with the target using the TR-FRET assay technology (Perkin-Elmer). Specifically, in a 384 well ProxiPlate, TAF1-BD2 (0.012 uM final) in 50 mM HEPES (pH 7.5; final), 50 mM NaCl (final), 1 mM TCEP (final), 0.1 mg/mL BSA (final), and 0.069 mM Brij-35 (final) was added either in the presence of DMSO (final 0.2% DMSO) or compound dilution series in DMSO. After a 10 minute incubation at room temperature, biotin-ligand (0.04 uM final) was added. After 10 minutes incubation at room temperature, a mixture Eu-W1024 Anti-6×His antibody (Perkin Elmer AD0110) and SureLight™ Streptavidin-Allophycocyanin (SA-APC, Perkin Elmer CR130-100) were added to a final concentration of 0.2 nM antibody and 0.025 uM SA-APC, respectively. After forty minutes of equilibration at room temperature, the plates were read on an Envision instrument and IC50s calculated using a four parameter logistic model (XLFIT).

## CCOC(=O)c1c(C)[nH]c2c(=O)n(C)cc(C#C[C@@](C)(O)c3ncccn3)c12 [Example 6, ethyl 4-[(3R)-3-hydroxy-3-pyrimidin-2-yl-but-1-ynyl]-2,6-dimethyl-7-oxo-1H-pyrrolo[2,3-c]pyridine-3-carboxylate]
TAF1-BD1
  IC50: 989 nM
TAF1-BD2
  IC50: 147 nM

## CCOC(=O)c1c(C)[nH]c2c(=O)n(C)cc(C#CC(C)(O)C(C)C)c12 (centres unmarked) [Example 70, ethyl 4-(3-hydroxy-3,4-dimethyl-pent-1-ynyl)-2,6-dimethyl-7-oxo-1H-pyrrolo[2,3-c]pyridine-3-carboxylate]
TAF1-BD1
  IC50: 515 nM
TAF1-BD2
  IC50: 82.3 nM

## Cc1[nH]c2c(=O)n(C)cc(C#CC(C)(O)C3CC3)c2c1C1=NCC(C)(C)O1 (centres unmarked) [Example 204, 4-(3-cyclopropyl-3-hydroxy-but-1-ynyl)-3-(5,5-dimethyl-4H-oxazol-2-yl)-2,6-dimethyl-1H-pyrrolo[2,3-c]pyridin-7-one]
TAF1-BD1
  IC50: 1030 nM
TAF1-BD2
  IC50: 147 nM

## Cc1cc2c(C#CC(C)(C)O)cn(C)c(=O)c2[nH]1 [Example 198, 4-(3-hydroxy-3-methyl-but-1-ynyl)-2,6-dimethyl-1H-pyrrolo[2,3-c]pyridin-7-one]
TAF1-BD1
  IC50: 1740 nM
TAF1-BD2
  IC50: 536 nM

## CCOC(=O)c1c(C)[nH]c2c(=O)n(C)cc(C#CC3(O)CCN(C)CC3)c12 [Example 9, ethyl 4-[2-(4-hydroxy-1-methyl-4-piperidyl)ethynyl]-2,6-dimethyl-7-oxo-1H-pyrrolo[2,3-c]pyridine-3-carboxylate]
TAF1-BD1
  IC50: 14500 nM
TAF1-BD2
  IC50: 815 nM

## Cc1[nH]c2c(=O)n(C)cc(C#CC(C)(C)O)c2c1C(=O)OCc1ccccn1 [Example 115, 2-pyridylmethyl 4-(3-hydroxy-3-methyl-but-1-ynyl)-2,6-dimethyl-7-oxo-1H-pyrrolo[2,3-c]pyridine-3-carboxylate]
TAF1-BD1
  IC50: 282 nM
TAF1-BD2
  IC50: 34.1 nM

## Cc1[nH]c2c(=O)n(C)cc(C#CC(C)(C)O)c2c1-c1nnc(C(C)C)o1 [Example 195, 4-(3-hydroxy-3-methyl-but-1-ynyl)-3-(5-isopropyl-1,3,4-oxadiazol-2-yl)-2,6-dimethyl-1H-pyrrolo[2,3-c]pyridin-7-one]
TAF1-BD1
  IC50: 360 nM
TAF1-BD2
  IC50: 29.4 nM

## CCOC(=O)c1c(C)[nH]c2c(=O)n(C)cc(C#CC3(O)CCC3)c12 [Example 21, ethyl 4-[2-(1-hydroxycyclobutyl)ethynyl]-2,6-dimethyl-7-oxo-1H-pyrrolo[2,3-c]pyridine-3-carboxylate]
TAF1-BD1
  IC50: 407 nM
TAF1-BD2
  IC50: 61.1 nM

## CCCCC(C)(C)OC(=O)c1c(C)[nH]c2c(=O)n(C)cc(C#CC(C)(C)O)c12 [Example 146, 1,1-dimethylpentyl 4-(3-hydroxy-3-methyl-but-1-ynyl)-2,6-dimethyl-7-oxo-1H-pyrrolo[2,3-c]pyridine-3-carboxylate]
TAF1-BD1
  IC50: 288 nM
TAF1-BD2
  IC50: 43.2 nM

## Cc1[nH]c2c(=O)n(C)cc(C#CC(C)(C)O)c2c1C(=O)OC(C)(C)CCN [Example 165, (3-amino-1,1-dimethyl-propyl) 4-(3-hydroxy-3-methyl-but-1-ynyl)-2,6-dimethyl-7-oxo-1H-pyrrolo[2,3-c]pyridine-3-carboxylate]
TAF1-BD1
  IC50: 551 nM
TAF1-BD2
  IC50: 21.7 nM

## CCOC(=O)c1c(C)[nH]c2c(=O)n(C)cc(C#C[C@@](C)(O)c3cc(C)no3)c12 [Example 69, ethyl 4-[(3R)-3-hydroxy-3-(3-methylisoxazol-5-yl)but-1-ynyl]-2,6-dimethyl-7-oxo-1H-pyrrolo[2,3-c]pyridine-3-carboxylate]
TAF1-BD1
  IC50: 210 nM
TAF1-BD2
  IC50: 61 nM

## Cc1nnc(-c2c(C)[nH]c3c(=O)n(C)cc(C#CC(C)(C)O)c23)o1 [Example 177, 4-(3-hydroxy-3-methyl-but-1-ynyl)-2,6-dimethyl-3-(5-methyl-1,3,4-oxadiazol-2-yl)-1H-pyrrolo[2,3-c]pyridin-7-one]
TAF1-BD1
  IC50: 543 nM
TAF1-BD2
  IC50: 50.7 nM

## Cc1[nH]c2c(=O)n(C)cc(C#CC(C)(C)O)c2c1C(=O)NC(C)(C)C [Example 170, N-tert-butyl-4-(3-hydroxy-3-methyl-but-1-ynyl)-2,6-dimethyl-7-oxo-1H-pyrrolo[2,3-c]pyridine-3-carboxamide]
TAF1-BD1
  IC50: 3620 nM
TAF1-BD2
  IC50: 347 nM

## Cc1nnc(-c2c(C)[nH]c3c(=O)n(C)cc(C#CC(O)(c4ccccc4)C(F)(F)F)c23)o1 (centres unmarked) [Example 184, 2,6-dimethyl-3-(5-methyl-1,3,4-oxadiazol-2-yl)-4-(4,4,4-trifluoro-3-hydroxy-3-phenyl-but-1-ynyl)-1H-pyrrolo[2,3-c]pyridin-7-one]
TAF1-BD1
  IC50: 327 nM
TAF1-BD2
  IC50: 62.7 nM

## Cc1[nH]c2c(=O)n(C)cc(C#CC(O)(c3ccccc3)C(F)(F)F)c2c1-c1nnc(CO)o1 (centres unmarked) [Example 205, 3-(5-(hydroxymethyl)-1,3,4-oxadiazol-2-yl)-2,6-dimethyl-4-(4,4,4-trifluoro-3-hydroxy-3-phenyl-but-1-ynyl)-1H-pyrrolo[2,3-c]pyridin-7-one]
TAF1-BD1
  IC50: 334 nM
TAF1-BD2
  IC50: 88.8 nM

## CCOC(=O)c1c(C)[nH]c2c(=O)n(C)cc(C#CC3CCCCC3)c12 [Example 79, ethyl 4-(2-cyclohexylethynyl)-2,6-dimethyl-7-oxo-1H-pyrrolo[2,3-c]pyridine-3-carboxylate]
TAF1-BD1
  IC50: 1330 nM
TAF1-BD2
  IC50: 584 nM

## CC(=O)NCCCOC(=O)c1c(C)[nH]c2c(=O)n(C)cc(C#CC(O)(c3ccccc3)C(F)(F)F)c12 (centres unmarked) [Example 135, 3-acetamidopropyl 2,6-dimethyl-7-oxo-4-(4,4,4-trifluoro-3-hydroxy-3-phenyl-but-1-ynyl)-1H-pyrrolo[2,3-c]pyridine-3-carboxylate]
TAF1-BD1
  IC50: 295 nM
TAF1-BD2
  IC50: 40.8 nM

## Cc1cc([C@](C)(O)C#Cc2cn(C)c(=O)c3[nH]c(C)c(-c4nnc(C5CC5)o4)c23)no1 [Example 190, 3-(5-cyclopropyl-1,3,4-oxadiazol-2-yl)-4-[(3R)-3-hydroxy-3-(5-methylisoxazol-3-yl)but-1-ynyl]-2,6-dimethyl-1H-pyrrolo[2,3-c]pyridin-7-one]
TAF1-BD1
  IC50: 239 nM
TAF1-BD2
  IC50: 49.9 nM

## CCOC(=O)c1c(C)[nH]c2c(=O)n(C)cc(C#CC3(C)COC3)c12 [Example 13, ethyl 2,6-dimethyl-4-[2-(3-methyloxetan-3-yl)ethynyl]-7-oxo-1H-pyrrolo[2,3-c]pyridine-3-carboxylate]
TAF1-BD1
  IC50: 434 nM
TAF1-BD2
  IC50: 379 nM

## Cc1[nH]c2c(=O)n(C)cc(C#CC(C)(O)C3CC3)c2c1-c1nnc(C2CCOC2)o1 (centres unmarked) [Example 175, 4-(3-cyclopropyl-3-hydroxy-but-1-ynyl)-2,6-dimethyl-3-(5-tetrahydrofuran-3-yl-1,3,4-oxadiazol-2-yl)-1H-pyrrolo[2,3-c]pyridin-7-one]
TAF1-BD1
  IC50: 248 nM
TAF1-BD2
  IC50: 46.7 nM

## Cc1[nH]c2c(=O)n(C)cc(C#CC(C)(O)C3CC3)c2c1C(=O)OCc1cccc2cccnc12 (centres unmarked) [Example 105, 8-quinolylmethyl 4-(3-cyclopropyl-3-hydroxy-but-1-ynyl)-2,6-dimethyl-7-oxo-1H-pyrrolo[2,3-c]pyridine-3-carboxylate]
TAF1-BD1
  IC50: 93.9 nM
TAF1-BD2
  IC50: 34.6 nM

## CCOC(=O)c1c(C2CC2)[nH]c2c(=O)n(C)cc(C#CC(C)(C)O)c12 [Example 207, ethyl 2-cyclopropyl-4-(3-hydroxy-3-methyl-but-1-ynyl)-6-methyl-7-oxo-1H-pyrrolo[2,3-c]pyridine-3-carboxylate]
TAF1-BD1
  IC50: 957 nM
TAF1-BD2
  IC50: 353 nM

## Cc1[nH]c2c(=O)n(C)cc(C#CC(C)(C)O)c2c1C(=O)OCc1ccccc1C(F)(F)F [Example 116, [2-(trifluoromethyl)phenyl]methyl 4-(3-hydroxy-3-methyl-but-1-ynyl)-2,6-dimethyl-7-oxo-1H-pyrrolo[2,3-c]pyridine-3-carboxylate]
TAF1-BD1
  IC50: 105 nM
TAF1-BD2
  IC50: 27.7 nM

## CCOC(=O)c1c(C)[nH]c2c(=O)n(C)cc(C#CC(O)(CC)c3ccccc3)c12 (centres unmarked) [Example 75, ethyl 4-(3-hydroxy-3-phenyl-pent-1-ynyl)-2,6-dimethyl-7-oxo-1H-pyrrolo[2,3-c]pyridine-3-carboxylate]
TAF1-BD1
  IC50: 427 nM
TAF1-BD2
  IC50: 76.5 nM

## Cc1[nH]c2c(=O)n(C)cc(C#CC(O)(c3ccccc3)C(F)(F)F)c2c1C(=O)OCC(C)C (centres unmarked) [Example 130, isobutyl 2,6-dimethyl-7-oxo-4-(4,4,4-trifluoro-3-hydroxy-3-phenyl-but-1-ynyl)-1H-pyrrolo[2,3-c]pyridine-3-carboxylate]
TAF1-BD1
  IC50: 1540 nM
TAF1-BD2
  IC50: 280 nM

— US10202378B2, “Therapeutic compounds and uses thereof” (GENENTECH, INC., priority 2015, dated 2019)
